Literature values, collected in paper PMC8309005, “Novel Non-Congeneric Derivatives of the Choline Kinase Alpha Inhibitor ICL-CCIC-0019” (Pharmaceutics, 2021).

Experiments:
CHKA = test system: CHKA; parameters: method as in ref 18, 25 (HC-3), 20, 21 (MN58B), 23 (RSM-932A); details: CHKA inhibitors of Figure 1; 25 (HC-3), 20, 21 (MN58B), 23 (RSM-932A); cited from earlier work
HeLa = test system: HeLa; parameters: method as in ref 20, 21 (MN58B), 23 (RSM-932A); details: 21 (MN58B), 23 (RSM-932A); cited from earlier work
A431 = test system: A431; parameters: method as in PMID 12678804, PMID 10397253; details: cited from earlier work
MCF-7 = test system: MCF-7; parameters: method as in PMID 12678804, PMID 10397253; details: cited from earlier work
HT-29 = test system: HT-29; parameters: method as in ref 20, 21 (MN58B), 23 (RSM-932A); details: 21 (MN58B), 23 (RSM-932A); cited from earlier work
HepG2 = test system: HepG2; parameters: method as in PMID 25487918; details: cited from earlier work

Row | Structure (SMILES) | IC50 (CHKA) | GI50 (HeLa) | GI50 (A431) | GI50 (MCF-7) | GI50 (HT-29) | GI50 (HepG2)
1 | CN(C)c1cc[n+](Cc2ccc(CCCCc3ccc(C[n+]4ccc(N(C)C)cc4)cc3)cc2)cc1 [MN58B] | 1400 nM | 1200 nM | 2100 nM | 600 nM | 1400 nM | –
2 | C/[N+](c1ccc(Cl)cc1)=c1\ccn(Cc2ccc(-c3ccc(Cn4cc/c(=[N+](/C)c5ccc(Cl)cc5)c5ccccc54)cc3)cc2)c2ccccc12 [RSM-932A] | 1000 nM | 1000 nM | – | – | 1300 nM | 1300 nM
